Test results from ChEMBL document CHEMBL3991601, “The target landscape of clinical kinase drugs” (Science, 2017).
Activity calls are given as the source filed them.

Assays:
[1] = biological target: RAC-alpha serine/threonine-protein kinase (Homo sapiens, UniProt P31749)
dCTP pyrophosphatase 1 = biological target: T1, dCTP pyrophosphatase 1 (Homo sapiens, UniProt Q9H773)
T1 sequence (Q9H773 whole entry): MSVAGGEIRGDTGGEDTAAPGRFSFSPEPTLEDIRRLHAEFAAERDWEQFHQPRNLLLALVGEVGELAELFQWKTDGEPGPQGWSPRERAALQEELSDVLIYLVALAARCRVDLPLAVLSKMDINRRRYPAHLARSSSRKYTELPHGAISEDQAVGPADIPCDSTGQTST

[2] = biological target: 5'-AMP-activated protein kinase catalytic subunit alpha-1 (Homo sapiens, UniProt Q13131)
[3] = biological target: T2, Dynamin-like GTPase OPA1, mitochondrial (Homo sapiens, UniProt O60313)
T2 sequence (O60313 whole entry): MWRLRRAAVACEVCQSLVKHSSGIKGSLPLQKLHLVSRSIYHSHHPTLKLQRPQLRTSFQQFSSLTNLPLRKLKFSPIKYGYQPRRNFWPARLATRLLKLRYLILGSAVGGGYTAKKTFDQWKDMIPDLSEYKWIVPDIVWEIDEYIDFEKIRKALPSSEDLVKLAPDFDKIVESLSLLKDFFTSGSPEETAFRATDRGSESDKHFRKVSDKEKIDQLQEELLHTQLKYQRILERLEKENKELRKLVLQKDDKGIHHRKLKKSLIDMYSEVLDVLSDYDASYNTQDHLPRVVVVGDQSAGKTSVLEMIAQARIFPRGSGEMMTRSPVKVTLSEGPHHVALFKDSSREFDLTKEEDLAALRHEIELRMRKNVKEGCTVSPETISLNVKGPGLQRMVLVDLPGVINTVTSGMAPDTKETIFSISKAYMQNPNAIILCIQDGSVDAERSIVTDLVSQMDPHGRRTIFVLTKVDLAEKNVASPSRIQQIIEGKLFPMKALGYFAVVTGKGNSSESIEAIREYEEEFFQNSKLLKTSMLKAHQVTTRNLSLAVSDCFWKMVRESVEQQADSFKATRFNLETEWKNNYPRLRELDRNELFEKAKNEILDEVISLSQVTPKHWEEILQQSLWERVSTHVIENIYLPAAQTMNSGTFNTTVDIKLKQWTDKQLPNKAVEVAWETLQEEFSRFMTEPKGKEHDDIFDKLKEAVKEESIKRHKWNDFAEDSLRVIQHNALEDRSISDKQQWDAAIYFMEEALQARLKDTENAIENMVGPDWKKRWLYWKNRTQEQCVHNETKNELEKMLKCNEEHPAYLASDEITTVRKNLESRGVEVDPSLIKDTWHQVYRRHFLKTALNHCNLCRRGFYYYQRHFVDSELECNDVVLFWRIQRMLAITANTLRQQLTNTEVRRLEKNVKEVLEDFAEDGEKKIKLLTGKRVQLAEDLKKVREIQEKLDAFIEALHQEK

DNA topoisomerase 2-beta = DNA topoisomerase 2-beta (Homo sapiens, UniProt Q02880)
Wee1-like protein kinase = Wee1-like protein kinase (Homo sapiens, UniProt P30291)
ADP/ATP translocase 3 = biological target: T3, ADP/ATP translocase 3 (Homo sapiens, UniProt P12236)
T3 sequence (P12236 whole entry): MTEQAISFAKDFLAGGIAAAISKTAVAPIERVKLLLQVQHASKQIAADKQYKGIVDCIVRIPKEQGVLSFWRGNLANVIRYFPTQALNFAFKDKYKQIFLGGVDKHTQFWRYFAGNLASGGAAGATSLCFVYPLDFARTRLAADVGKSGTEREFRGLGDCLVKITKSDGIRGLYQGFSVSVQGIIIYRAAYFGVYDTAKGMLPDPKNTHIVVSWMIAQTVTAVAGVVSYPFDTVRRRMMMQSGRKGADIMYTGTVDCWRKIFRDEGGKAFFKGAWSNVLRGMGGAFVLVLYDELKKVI

[4] = biological target: Inosine-5'-monophosphate dehydrogenase 2 (Homo sapiens, UniProt P12268)
[5] = biological target: Tyrosine-protein kinase BTK (Homo sapiens, UniProt Q06187)
[6] = biological target: Citron Rho-interacting kinase (Homo sapiens, UniProt O14578)
[7] = biological target: T4, Dual specificity mitogen-activated protein kinase kinase 3 (Homo sapiens, UniProt P46734)
T4 sequence (P46734 whole entry): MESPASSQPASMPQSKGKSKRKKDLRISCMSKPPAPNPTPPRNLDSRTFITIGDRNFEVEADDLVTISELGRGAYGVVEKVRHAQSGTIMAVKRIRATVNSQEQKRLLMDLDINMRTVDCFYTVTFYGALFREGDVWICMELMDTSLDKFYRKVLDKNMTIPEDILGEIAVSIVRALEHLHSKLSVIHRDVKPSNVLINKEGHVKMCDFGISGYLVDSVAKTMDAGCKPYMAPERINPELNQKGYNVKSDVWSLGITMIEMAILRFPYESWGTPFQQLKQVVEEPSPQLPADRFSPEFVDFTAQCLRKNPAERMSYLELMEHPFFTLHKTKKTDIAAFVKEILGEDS

[8] = biological target: Mitogen-activated protein kinase kinase kinase kinase 4 (Homo sapiens, UniProt O95819)
[9] = biological target: T5, Mitogen-activated protein kinase kinase kinase 3 (Homo sapiens, UniProt Q99759)
T5 sequence (Q99759 whole entry): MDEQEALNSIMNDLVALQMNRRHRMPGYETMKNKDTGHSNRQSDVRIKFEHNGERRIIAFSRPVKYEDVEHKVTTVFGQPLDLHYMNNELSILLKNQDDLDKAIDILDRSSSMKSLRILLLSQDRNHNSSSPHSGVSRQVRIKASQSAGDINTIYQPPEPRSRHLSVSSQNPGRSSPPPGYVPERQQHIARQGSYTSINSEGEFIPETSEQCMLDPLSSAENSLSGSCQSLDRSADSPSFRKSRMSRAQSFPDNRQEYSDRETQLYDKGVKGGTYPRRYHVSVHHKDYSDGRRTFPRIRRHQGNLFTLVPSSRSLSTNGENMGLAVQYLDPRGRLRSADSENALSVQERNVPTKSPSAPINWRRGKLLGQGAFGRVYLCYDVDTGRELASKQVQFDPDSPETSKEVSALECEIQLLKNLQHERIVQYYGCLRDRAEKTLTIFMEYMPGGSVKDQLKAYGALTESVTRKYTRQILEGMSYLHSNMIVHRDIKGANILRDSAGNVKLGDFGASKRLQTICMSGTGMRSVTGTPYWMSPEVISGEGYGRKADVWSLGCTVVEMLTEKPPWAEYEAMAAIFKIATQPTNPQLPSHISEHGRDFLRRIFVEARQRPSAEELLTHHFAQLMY
Also: in the data inactive means no Kd found up to 30 µM.

RAC-alpha serine/threonine-protein kinase, sequence (P31749 whole entry): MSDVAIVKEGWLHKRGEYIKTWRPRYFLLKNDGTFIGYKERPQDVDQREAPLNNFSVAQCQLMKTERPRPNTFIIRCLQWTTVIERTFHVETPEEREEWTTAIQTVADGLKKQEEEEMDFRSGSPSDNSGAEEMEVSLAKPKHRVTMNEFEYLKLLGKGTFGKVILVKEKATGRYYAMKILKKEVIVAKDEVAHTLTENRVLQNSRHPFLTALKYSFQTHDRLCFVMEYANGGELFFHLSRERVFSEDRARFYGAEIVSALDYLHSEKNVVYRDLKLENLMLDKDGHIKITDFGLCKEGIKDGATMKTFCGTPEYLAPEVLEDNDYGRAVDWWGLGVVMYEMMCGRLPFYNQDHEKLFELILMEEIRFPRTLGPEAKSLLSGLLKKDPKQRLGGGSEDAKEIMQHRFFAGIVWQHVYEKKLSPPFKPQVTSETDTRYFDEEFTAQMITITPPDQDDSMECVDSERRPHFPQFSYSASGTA
Tyrosine-protein kinase BTK, sequence (Q06187 whole entry): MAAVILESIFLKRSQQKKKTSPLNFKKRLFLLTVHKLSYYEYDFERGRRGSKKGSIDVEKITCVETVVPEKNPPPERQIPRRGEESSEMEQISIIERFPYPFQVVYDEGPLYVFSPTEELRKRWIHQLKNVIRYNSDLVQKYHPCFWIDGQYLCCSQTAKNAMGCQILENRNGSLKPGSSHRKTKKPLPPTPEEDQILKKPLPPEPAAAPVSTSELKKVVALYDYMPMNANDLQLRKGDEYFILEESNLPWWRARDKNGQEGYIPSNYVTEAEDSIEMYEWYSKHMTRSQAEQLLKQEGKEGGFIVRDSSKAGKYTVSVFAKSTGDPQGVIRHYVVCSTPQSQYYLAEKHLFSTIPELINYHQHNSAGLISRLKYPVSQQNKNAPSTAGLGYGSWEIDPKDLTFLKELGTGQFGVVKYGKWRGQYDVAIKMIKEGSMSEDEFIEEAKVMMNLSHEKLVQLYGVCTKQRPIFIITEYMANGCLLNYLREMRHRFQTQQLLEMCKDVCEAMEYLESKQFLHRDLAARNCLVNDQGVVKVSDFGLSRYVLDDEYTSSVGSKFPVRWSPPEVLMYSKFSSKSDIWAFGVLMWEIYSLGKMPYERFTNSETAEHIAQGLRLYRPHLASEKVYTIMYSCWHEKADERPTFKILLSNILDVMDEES
5'-AMP-activated protein kinase catalytic subunit alpha-1, sequence (Q13131 whole entry): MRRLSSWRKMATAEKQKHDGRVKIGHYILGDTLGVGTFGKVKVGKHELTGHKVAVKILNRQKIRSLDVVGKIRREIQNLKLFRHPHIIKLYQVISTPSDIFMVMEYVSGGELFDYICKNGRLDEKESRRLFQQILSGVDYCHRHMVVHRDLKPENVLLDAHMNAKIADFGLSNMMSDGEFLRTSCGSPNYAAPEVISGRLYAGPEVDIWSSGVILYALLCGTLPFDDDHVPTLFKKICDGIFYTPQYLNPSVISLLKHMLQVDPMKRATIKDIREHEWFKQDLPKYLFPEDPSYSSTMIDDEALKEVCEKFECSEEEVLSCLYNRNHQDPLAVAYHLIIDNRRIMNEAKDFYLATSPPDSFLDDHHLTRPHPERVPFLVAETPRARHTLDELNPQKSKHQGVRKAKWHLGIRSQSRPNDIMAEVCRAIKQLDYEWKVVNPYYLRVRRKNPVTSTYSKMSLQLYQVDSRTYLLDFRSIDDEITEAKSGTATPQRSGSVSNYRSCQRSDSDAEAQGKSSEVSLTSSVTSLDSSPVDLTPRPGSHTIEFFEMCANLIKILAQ
Wee1-like protein kinase, sequence (P30291 whole entry): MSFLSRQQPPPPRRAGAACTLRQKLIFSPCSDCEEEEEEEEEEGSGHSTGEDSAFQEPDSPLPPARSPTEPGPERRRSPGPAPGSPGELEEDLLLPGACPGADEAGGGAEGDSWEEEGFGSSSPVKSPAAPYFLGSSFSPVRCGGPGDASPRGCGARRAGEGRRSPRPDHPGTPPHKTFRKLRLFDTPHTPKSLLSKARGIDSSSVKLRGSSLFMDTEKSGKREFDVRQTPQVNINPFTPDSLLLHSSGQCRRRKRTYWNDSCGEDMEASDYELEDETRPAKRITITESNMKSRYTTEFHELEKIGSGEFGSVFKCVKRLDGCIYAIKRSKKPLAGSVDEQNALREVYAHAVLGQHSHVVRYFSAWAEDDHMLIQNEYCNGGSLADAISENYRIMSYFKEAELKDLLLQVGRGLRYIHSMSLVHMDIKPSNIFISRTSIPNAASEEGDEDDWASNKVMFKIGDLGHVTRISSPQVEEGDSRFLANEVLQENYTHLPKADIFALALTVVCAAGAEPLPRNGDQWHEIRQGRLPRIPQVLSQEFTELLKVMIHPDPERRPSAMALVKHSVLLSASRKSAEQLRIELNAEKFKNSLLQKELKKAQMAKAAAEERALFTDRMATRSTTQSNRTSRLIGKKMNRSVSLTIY
Mitogen-activated protein kinase kinase kinase kinase 4, sequence (O95819 whole entry): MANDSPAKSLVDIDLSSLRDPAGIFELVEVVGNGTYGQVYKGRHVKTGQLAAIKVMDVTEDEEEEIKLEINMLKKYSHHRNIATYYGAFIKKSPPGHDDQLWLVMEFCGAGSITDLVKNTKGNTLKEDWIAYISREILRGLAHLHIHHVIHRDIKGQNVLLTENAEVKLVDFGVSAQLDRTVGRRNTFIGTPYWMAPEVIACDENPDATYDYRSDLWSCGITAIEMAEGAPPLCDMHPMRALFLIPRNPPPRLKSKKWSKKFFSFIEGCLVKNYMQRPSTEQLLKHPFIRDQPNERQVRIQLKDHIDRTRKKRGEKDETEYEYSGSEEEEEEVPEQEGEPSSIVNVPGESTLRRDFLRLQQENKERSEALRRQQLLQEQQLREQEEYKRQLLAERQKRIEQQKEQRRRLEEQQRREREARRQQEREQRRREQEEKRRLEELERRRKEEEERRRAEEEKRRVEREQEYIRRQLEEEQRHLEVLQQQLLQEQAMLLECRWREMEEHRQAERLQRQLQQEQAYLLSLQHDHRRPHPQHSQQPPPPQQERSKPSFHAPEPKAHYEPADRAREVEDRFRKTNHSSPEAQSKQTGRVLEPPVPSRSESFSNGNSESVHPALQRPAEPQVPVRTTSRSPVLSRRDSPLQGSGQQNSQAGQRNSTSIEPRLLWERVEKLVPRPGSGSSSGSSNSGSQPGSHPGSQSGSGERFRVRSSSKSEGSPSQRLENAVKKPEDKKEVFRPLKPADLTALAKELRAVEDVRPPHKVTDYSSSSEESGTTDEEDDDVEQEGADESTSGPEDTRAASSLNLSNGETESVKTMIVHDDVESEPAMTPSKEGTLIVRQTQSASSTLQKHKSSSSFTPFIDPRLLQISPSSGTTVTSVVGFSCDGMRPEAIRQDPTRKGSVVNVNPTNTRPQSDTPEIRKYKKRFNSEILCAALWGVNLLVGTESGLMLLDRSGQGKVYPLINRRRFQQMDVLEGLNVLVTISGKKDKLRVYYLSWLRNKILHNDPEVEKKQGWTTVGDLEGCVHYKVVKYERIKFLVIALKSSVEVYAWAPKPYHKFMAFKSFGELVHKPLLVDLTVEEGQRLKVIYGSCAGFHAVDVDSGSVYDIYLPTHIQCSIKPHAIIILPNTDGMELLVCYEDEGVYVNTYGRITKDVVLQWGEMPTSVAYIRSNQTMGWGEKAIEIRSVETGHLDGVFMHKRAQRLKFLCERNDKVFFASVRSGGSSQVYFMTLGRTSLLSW

SMILES	Kd [1]	Kd (dCTP pyrophosphatase 1)	Kd [2]	Kd [3]	Kd (DNA topoisomerase 2-beta)	Kd (Wee1-like protein kinase)	Kd (ADP/ATP translocase 3)	Kd [4]	Kd [5]	Kd [6]	Kd [7]	Kd [8]	Kd [9]
FC(F)(F)c1ccc(CNc2ccc(Cc3c[nH]c4ncc(Cl)cc34)cn2)cn1 [PEXIDARTINIB]	> 30 µM (inactive)	> 30 µM (inactive)	> 30 µM (inactive)	> 30 µM (inactive)	> 30 µM (inactive)	> 30 µM (inactive)	> 30 µM (inactive)	> 30 µM (inactive)	> 30 µM (inactive)	> 30 µM (inactive)	> 30 µM (inactive)	> 30 µM (inactive)	> 30 µM (inactive)
CC(C)CC(=O)Nc1[nH]nc2c1CN(C(=O)C1CCN(C)CC1)C2(C)C [PHA-793887]	> 30 µM (inactive)	> 30 µM (inactive)	> 30 µM (inactive)	> 30 µM (inactive)	> 30 µM (inactive)	> 30 µM (inactive)	> 30 µM (inactive)	> 30 µM (inactive)	> 30 µM (inactive)	> 30 µM (inactive)	> 30 µM (inactive)	> 30 µM (inactive)	> 30 µM (inactive)
O=C(NC[C@H](O)CO)c1ccncc1Nc1ccc(I)cc1F [PIMASERTIB]	> 30 µM (inactive)	> 30 µM (inactive)	> 30 µM (inactive)	> 30 µM (inactive)	> 30 µM (inactive)	> 30 µM (inactive)	> 30 µM (inactive)	> 30 µM (inactive)	> 30 µM (inactive)	> 30 µM (inactive)	> 30 µM (inactive)	> 30 µM (inactive)	> 30 µM (inactive)
COc1cc(F)c(F)c(Nc2ccc(I)cc2F)c1NS(=O)(=O)C1(C[C@H](O)CO)CC1 [REFAMETINIB]	> 30 µM (inactive)	> 30 µM (inactive)	> 30 µM (inactive)	> 30 µM (inactive)	> 30 µM (inactive)	> 30 µM (inactive)	> 30 µM (inactive)	> 30 µM (inactive)	> 30 µM (inactive)	> 30 µM (inactive)	> 30 µM (inactive)	> 30 µM (inactive)	> 30 µM (inactive)
COCCN1CCN(Cc2ccc(-c3n[nH]c4c3C(=O)c3c(NC(=O)NN5CCOCC5)cccc3-4)cc2)CC1 [RGB-286638]	> 30 µM (inactive)	> 30 µM (inactive)	> 30 µM (inactive)	> 30 µM (inactive)	> 30 µM (inactive)	> 30 µM (inactive)	> 30 µM (inactive)	> 30 µM (inactive)	> 30 µM (inactive)	0.763 µM (active)	> 30 µM (inactive)	0.127 µM	> 30 µM (inactive)
Cc1cc(C(=O)Nc2cc(Oc3ccc4nc(NC(=O)C5CC5)cn4n3)ccc2C)n(C)n1 [TAK-593]	> 30 µM (inactive)	> 30 µM (inactive)	> 30 µM (inactive)	> 30 µM (inactive)	> 30 µM (inactive)	> 30 µM (inactive)	> 30 µM (inactive)	> 30 µM (inactive)	> 30 µM (inactive)	> 30 µM (inactive)	> 30 µM (inactive)	> 30 µM (inactive)	> 30 µM (inactive)
Cn1c(=O)c(F)c(Nc2ccc(I)cc2F)c2c(=O)n(C[C@@H](O)CO)cnc21 [TAK-733]	> 30 µM (inactive)	> 30 µM (inactive)	> 30 µM (inactive)	> 30 µM (inactive)	> 30 µM (inactive)	> 30 µM (inactive)	> 30 µM (inactive)	> 30 µM (inactive)	> 30 µM (inactive)	> 30 µM (inactive)	> 30 µM (inactive)	> 30 µM (inactive)	> 30 µM (inactive)

The remaining lines, values ahead:

Kd [1]	Kd (dCTP pyrophosphatase 1)	Kd [2]	Kd [3]	Kd (DNA topoisomerase 2-beta)	Kd (Wee1-like protein kinase)	Kd (ADP/ATP translocase 3)	Kd [4]	Kd [5]	Kd [6]	Kd [7]	Kd [8]	Kd [9]	SMILES
> 30 µM (inactive)	> 30 µM (inactive)	> 30 µM (inactive)	> 30 µM (inactive)	> 30 µM (inactive)	> 30 µM (inactive)	> 30 µM (inactive)	> 30 µM (inactive)	0.547 µM (active)	> 30 µM (inactive)	> 30 µM (inactive)	> 30 µM (inactive)	> 30 µM (inactive)	C=CC(=O)Nc1cccc(Nc2nc(Nc3ccc(N4CCN(C(C)=O)CC4)cc3OC)ncc2C(F)(F)F)c1 [ROCILETINIB]
> 30 µM (inactive)	> 30 µM (inactive)	15.4 µM (active)	> 30 µM (inactive)	> 30 µM (inactive)	> 30 µM (inactive)	> 30 µM (inactive)	> 30 µM (inactive)	> 30 µM (inactive)	> 30 µM (inactive)	> 30 µM (inactive)	> 30 µM (inactive)	> 30 µM (inactive)	O=C(O)c1ccc2c(c1)nc(Nc1cccc(Cl)c1)c1ccncc12 [SILMITASERTIB]
> 30 µM (inactive)	> 30 µM (inactive)	> 30 µM (inactive)	> 30 µM (inactive)	> 30 µM (inactive)	> 30 µM (inactive)	> 30 µM (inactive)	> 30 µM (inactive)	> 30 µM (inactive)	> 30 µM (inactive)	> 30 µM (inactive)	> 30 µM (inactive)	> 30 µM (inactive)	CC(C)(O)CC(=O)NCCn1ccc2ncnc(Nc3ccc(Oc4cccc(C(F)(F)F)c4)c(Cl)c3)c21 [TAK-285]
> 30 µM (inactive)	> 30 µM (inactive)	> 30 µM (inactive)	> 30 µM (inactive)	> 30 µM (inactive)	> 30 µM (inactive)	> 30 µM (inactive)	> 30 µM (inactive)	> 30 µM (inactive)	> 30 µM (inactive)	> 30 µM (inactive)	> 30 µM (inactive)	> 30 µM (inactive)	CNC(=O)c1cc(COc2nnc(Nc3ccc(Cl)cc3)c3ccoc23)ccn1 [TELATINIB]
